Assay results as given in the NIST ThermoML archive (doi:10.1021/je2007549).

How the values were obtained:
[1] = 101 kPa, Liquid; for electrical conductivity: Direct current cell with electrodes; for viscosity: Falling or rolling sphere viscometry; for mass density: Vibrating tube method
[2] = xn = mol fraction of the nth substance listed; settings: 101 kPa, Liquid; for electrical conductivity: Direct current cell with electrodes; for mass density: Vibrating tube method; for viscosity: n

CCCC[P+](CCCC)(CCCC)CCCN.C[C@H](N)C(=O)[O-] [(3-aminopropyl)tributylphosphonium L-alaninate]
[1]
Settings	electrical conductivity [S/m]	mass density [kg/m3]	viscosity [mPa·s]
298.15 K	0.0141	986.75	804.88
303.15 K	0.0209	983.72	561.4
313.15 K	0.032	977.65	291.07
323.15 K	0.0464	971.62	164.61
333.15 K	0.0649	965.71	106.7
343.15 K	0.0884	959.97	65.96

CC(C)C[C@H](N)C(=O)[O-].CCCC[P+](CCCC)(CCCC)CCCN [(3-aminopropyl)tributylphosphonium L-leucinate]
[1]
Settings	electrical conductivity [S/m]	mass density [kg/m3]	viscosity [mPa·s]
298.15 K	0.008	971.86	1227.9
303.15 K	0.0108	968.8	855.26
313.15 K	0.0185	962.68	417.9
323.15 K	0.0291	956.54	224.29
333.15 K	0.0414	950.54	130.46
343.15 K	0.0605	944.58	81.01

CC(C)[C@H](N)C(=O)[O-].CCCC[P+](CCCC)(CCCC)CCCN [(3-aminopropyl)tributylphosphonium L-valinate]
[1]
Settings	electrical conductivity [S/m]	mass density [kg/m3]	viscosity [mPa·s]
298.15 K	0.00815	980.72	1015.5
303.15 K	0.011	977.68	695.04
313.15 K	0.0188	971.57	350.86
323.15 K	0.0294	965.45	192.24
333.15 K	0.0447	959.5	114.05
343.15 K	0.065	953.54	72.45

CC(C)[C@H](N)C(=O)[O-].CCCC[P+](CCCC)(CCCC)CCCN [(3-aminopropyl)tributylphosphonium L-valinate] + O
[2]
Settings	electrical conductivity [S/m]	mass density [kg/m3]	viscosity [mPa·s]
298.15 K, x2 = 0	0.00815	980.72	1015.5
298.15 K, x2 = 0.25	0.0116	982.82	734.22
298.15 K, x2 = 0.5	0.0168	987.18	505.63
298.15 K, x2 = 0.75	0.0414	995.89	237.96
303.15 K, x2 = 0	0.011	977.68	695.04
303.15 K, x2 = 0.25	0.0158	979.76	508.12
303.15 K, x2 = 0.5	0.0237	984.04	335.23
303.15 K, x2 = 0.75	0.0547	992.65	168.93
313.15 K, x2 = 0	0.0188	971.57	350.86
313.15 K, x2 = 0.25	0.0253	973.59	259.52
313.15 K, x2 = 0.5	0.0401	977.71	184.22
313.15 K, x2 = 0.75	0.0853	986.16	92.15
323.15 K, x2 = 0	0.0294	965.45	192.24
323.15 K, x2 = 0.25	0.0392	967.39	145.61
323.15 K, x2 = 0.5	0.0635	971.55	102.76
323.15 K, x2 = 0.75	0.128	979.59	56.03
333.15 K, x2 = 0	0.0447	959.5	114.05
333.15 K, x2 = 0.25	0.0563	961.39	87.86
333.15 K, x2 = 0.5	0.093	965.34	65.77
333.15 K, x2 = 0.75	0.183	972.96	36.96
343.15 K, x2 = 0	0.065	953.54	72.45
343.15 K, x2 = 0.25	0.0858	955.37	56.87
343.15 K, x2 = 0.5	0.132	959.05	43.81
343.15 K, x2 = 0.75	0.258	966.29	24.58
